Assay results as given in patent publication US12552790B2, “Positive modulators of the muscarinic acetylcholine receptor M4” (Vanderbilt University, priority 2023, dated 2026).

Columns and labels:
Human M2 = molecular target: T1, Human M2 (Homo sapiens, UniProt P08172); test: M2 cell-based functional assay, calcium mobilization (selectivity); conditions: for Emax at 30 µM: % ACh maximum at 30 μM; for EC50 / Human M2 EC50: M2 cell-based functional assay, calcium flux
T1 construct: expressed in transfected cells; host or cells: CHO-K1
T1 sequence (P08172 1-466): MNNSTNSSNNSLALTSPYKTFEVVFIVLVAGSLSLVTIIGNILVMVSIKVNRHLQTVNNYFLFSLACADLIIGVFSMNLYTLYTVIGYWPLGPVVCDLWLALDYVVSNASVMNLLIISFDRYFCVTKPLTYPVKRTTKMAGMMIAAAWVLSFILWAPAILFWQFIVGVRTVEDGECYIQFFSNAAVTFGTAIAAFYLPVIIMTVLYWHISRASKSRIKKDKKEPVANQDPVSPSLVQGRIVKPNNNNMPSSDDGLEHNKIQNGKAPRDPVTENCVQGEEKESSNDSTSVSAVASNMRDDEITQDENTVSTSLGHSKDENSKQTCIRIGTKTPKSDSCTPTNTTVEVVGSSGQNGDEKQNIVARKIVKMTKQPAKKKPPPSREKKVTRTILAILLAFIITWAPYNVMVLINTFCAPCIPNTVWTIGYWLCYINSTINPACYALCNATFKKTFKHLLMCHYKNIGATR
Method: (§1) The high throughput assay was employed to measure receptor-induced mobilization of intracellular calcium to determine compound activity. Test compound was added to cells expressing the muscarinic receptors that were loaded with calcium sensitive fluorescent dye. After a ˜2.5 minute incubation period, a submaximal (EC20) concentration of acetylcholine was added, and the response measured. This kinetic assay allows for simultaneous screening and potency determination of multiple pharmacological modes of action including agonist and potentiator activity. CHO-K1 cells stably expressing muscarinic receptors were plated in growth medium lacking G418 and hygromycin at 15,000 cells/20 μL/well in Greiner 384-well black-walled, tissue culture (TC)-treated, clear-bottom plates (Greiner Bio-One). Cells were incubated overnight at 37° C. and 5% CO2. The next day, calcium assay buffer (Hank's balanced salt solution (HBSS), 20 mM HEPES, 2.5 mM Probenecid, 4.16 mM sodium bicarbonate (Sigma-Aldrich, St. Louis, MO)) was prepared to dilute compounds, agonists, and Fluo-4-acetomethoxyester (Fluo-4-AM), fluorescent calcium indicator dye. Compounds were serially diluted 1:3 into 10 point concentration response curves in DMSO using the Bravo Liquid Handler (Agilent, Santa Clara, CA), transferred to a 384 well daughter plates using an Echo acoustic liquid handler (Beckman Coulter, Indianapolis, Indiana), and diluted in assay Buffer to a 2× final concentration. The agonist plates were prepared using acetylcholine (ACh, Sigma-Aldrich, St. Louis, MO) concentrations for the EC20 and ECMAX responses by diluting in assay buffer to a 5× final concentration. The 2× dye solution (2.3 μM) was prepared by mixing a 2.3 mM Fluo-4-AM stock in DMSO with 10% (w/v) pluronic acid F-127 in a 1:1 ratio in assay buffer. Using a microplate washer (BioTek, Winooski, VT), cells were washed with assay buffer for 3 times to remove medium. After the final wash, 20 μL of assay buffer remained in the cell plates. Immediately, 20 μL of the 2× dye solution (final 1.15 μM) was added to each well of the cell plate using a Multidrop Combi dispenser (Thermo Fisher, Waltham, MA). After cells were incubated with the dye solutions for 45 min at 37° C. in the presence of 5% CO2, the dye solutions were removed and replaced with assay buffer using a microplate washer, leaving 20 μL of assay buffer in the cell plate.
The prepared compound, agonist, and cell plates were placed inside the Functional Drug Screening System uCell (FDSS uCell, Hamamatsu, Japan) to measure the calcium flux. The triple add protocol was used to measure Ca kinetics; Compound, ACh for EC20, and ACh for EC80 adds in an order. Briefly, after establishment of a fluorescence baseline for 2 seconds (excitation, 480 nm; emission, 530 nm), first add occurred by adding 20 μL of test compound to the cells, and the response was measured for 140 seconds. This is followed by second add; 10 μL (5×) of an EC20 concentration of ACh agonist was added to the cells, and the response of the cells was measured for 125 seconds. Immediately, the third add occurred by adding […] (5×) of an EC80 concentration of ACh and the response of the cells was measured for 90 seconds. Acetylcholine-mediated maximum response (ECmax) was measured by adding 1 mM ACh as third add in the control wells. DMSO vehicle was added to the control wells in the first add for assessing ACh EC20, EC80, and ECmax responses. Calcium fluorescence was recorded as fold over basal fluorescence and raw data were normalized to the maximal response to ACh agonist. Agonist activity was analyzed as a concentration-dependent increase in calcium mobilization upon compound addition. Positive allosteric modulator activity was analyzed as a concentration-dependent increase in the EC20 acetylcholine response. Antagonist activity was analyzed as a concentration-dependent decrease in the EC80 acetylcholine response. […]

Human M4 = molecular target: T2, Human M4 (Homo sapiens, UniProt P08173); test: M4 cell-based functional assay, calcium mobilization, potentiation of ACh EC20; conditions: for Emax at 30 µM: % ACh maximum at 30 μM; for EC50: CHO-K1 hM4-Gqi5 cells, calcium flux, ACh EC20
T2 construct: expressed in transfected cells
T2 sequence (P08173 1-479): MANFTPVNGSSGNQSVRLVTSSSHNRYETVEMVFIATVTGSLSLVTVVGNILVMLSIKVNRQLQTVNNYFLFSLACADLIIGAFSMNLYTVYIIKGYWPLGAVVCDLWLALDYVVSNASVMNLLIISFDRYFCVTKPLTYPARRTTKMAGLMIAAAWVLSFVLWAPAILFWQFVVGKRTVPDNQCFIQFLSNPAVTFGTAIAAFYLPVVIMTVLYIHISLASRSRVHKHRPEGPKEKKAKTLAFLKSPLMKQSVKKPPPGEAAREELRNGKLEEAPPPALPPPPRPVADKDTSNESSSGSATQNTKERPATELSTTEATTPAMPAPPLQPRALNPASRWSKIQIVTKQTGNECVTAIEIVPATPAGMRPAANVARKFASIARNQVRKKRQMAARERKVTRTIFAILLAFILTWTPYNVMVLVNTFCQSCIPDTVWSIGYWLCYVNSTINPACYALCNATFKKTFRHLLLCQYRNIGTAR
Method: Human and rat M4 cDNAs, along with the chimeric G protein Gqi5, were transfected into Chinese hamster ovary (CHO-K1) cells purchased from the American Type Culture Collection using Lipofectamine2000. The transfected cells were subjected to selection antbiotic treatment to generate stable cell lines; G418 sulfate (1 mg/ml) for selecting M4 expressing cells and Hygromycin B (500 μg/mL) for selecting Gqi5 expressing cells. The resulting polyclones were further screened to obtain monoclones of hM4-Gqi5 and rM4-Gqi5 for compound screening assay. Stable monoclone cells were maintained in Ham's F-12 medium containing 10% heat-inactivated fetal bovine serum (FBS), 1× Antibiotic/Antimycotic, 20 mM HEPES, 500 μg/mL G418 sulfate, and 200 μg/mL Hygromycin B in 37° C. humidified incubators in the presence of 5% CO2.
as §1
The prepared compound, agonist, and cell plates were placed inside the Functional Drug Screening System uCell (FDSS uCell, Hamamatsu, Japan) to measure the calcium flux. The triple add protocol was used to measure Ca kinetics; Compound, ACh for EC20, and ACh for EC80 adds in an order. Briefly, after establishment of a fluorescence baseline for 2 seconds (excitation, 480 nm; emission, 530 nm), first add occurred by adding 20 μL of test compound to the cells, and the response was measured for 140 seconds. This is followed by second add; 10 μL (5×) of an EC20 concentration of ACh agonist was added to the cells, and the response of the cells was measured for 125 seconds. […]

Compound | Emax at 30 µM (Human M2) | EC50 (Human M2) | Emax at 30 µM (Human M4) | EC50 (Human M4) | Human M2 EC50 (Human M2)
[2H]C1([2H])Oc2ccc(OC3CCN(c4nc5nn(CCOC)c(=O)n5cc4C)CC3)cc2OC1([2H])[2H] [Compound A3, 7-(4-((2,3-dihydrobenzo[b][1,4]dioxin-6-yl-2,2,3,3-d4)oxy)piperidin-1-yl)-2-(2-methoxyethyl)-6-methyl-[1,2,4]triazolo[4,3-a]pyrimidin-3(2H)-one] | 55% | 5.41 µM | 79% | 0.008 µM | –
[2H]C1([2H])Oc2ccc(OC3CCN(c4nc5nn([C@@H]6CCOC6)c(=O)n5cc4C)CC3)cc2OC1([2H])[2H] [Compound A4, (R)-7-(4-((2,3-dihydrobenzo[b][1,4]dioxin-6-yl-2,2,3,3-d4)oxy)piperidin-1-yl)-6-methyl-2-(tetrahydrofuran-3-yl)-[1,2,4]triazolo[4,3-a]pyrimidin-3(2H)-one] | 68% | 1.39 µM | 88% | 0.009 µM | –
[2H]C1([2H])Oc2ccc(OC3CCN(c4nc5nn([C@H]6CCOC6)c(=O)n5cc4C)CC3)cc2OC1([2H])[2H] [Compound A5, (S)-7-(4-((2,3-dihydrobenzo[b][1,4]dioxin-6-yl-2,2,3,3-d4)oxy)piperidin-1-yl)-6-methyl-2-(tetrahydrofuran-3-yl)-[1,2,4]triazolo[4,3-a]pyrimidin-3(2H)-one] | 66% | 2.87 µM | 87% | 0.012 µM | –
[2H]C1([2H])Oc2ccc(OC3CCN(c4nc5nn(C(C)COC)c(=O)n5cc4C)CC3)cc2OC1([2H])[2H] (centres unmarked) [Compound A7, 7-(4-((2,3-dihydrobenzo[b][1,4]dioxin-6-yl-2,2,3,3-d4)oxy)piperidin-1-yl)-2-(1-methoxypropan-2-yl)-6-methyl-[1,2,4]triazolo[4,3-a]pyrimidin-3(2H)-one] | 47% | > 10 µM | 89% | 0.053 µM | –
[2H]C1([2H])Oc2ccc(OC3CCN(c4nc5nn(CC6CN(C)CCO6)c(=O)n5cc4C)CC3)cc2OC1([2H])[2H] (centres unmarked) [Compound A8, 7-(4-((2,3-dihydrobenzo[b][1,4]dioxin-6-yl-2,2,3,3-d4)oxy)piperidin-1-yl)-6-methyl-2-((4-methylmorpholin-2-yl)methyl)-[1,2,4]triazolo[4,3-a]pyrimidin-3(2H)-one] | – | – | 95% | 0.048 µM | Inactive
[2H]C1([2H])Oc2ccc(OC3CCN(c4nc5nn(C)c(=O)n5c(Cl)c4C)CC3)cc2OC1([2H])[2H] [Compound A11, 5-chloro-7-(4-((2,3-dihydrobenzo[b][1,4]dioxin-6-yl-2,2,3,3-d4)oxy)piperidin-1-yl)-2,6-dimethyl-[1,2,4]triazolo[4,3-a]pyrimidin-3(2H)-one] | 57% | 6.09 µM | 90% | 0.012 µM | –

The remaining lines, values ahead:

Emax at 30 µM (Human M2) | EC50 (Human M2) | Emax at 30 µM (Human M4) | EC50 (Human M4) | Human M2 EC50 (Human M2) | Compound
78% | 0.367 µM | 100% | 0.005 µM | – | [2H]C1([2H])Oc2ccc(OC3CCN(c4nc5n[nH]c(=O)n5cc4C)CC3)cc2OC1([2H])[2H] [Compound A1, 7-(4-((2,3-dihydrobenzo[b][1,4]dioxin-6-yl-2,2,3,3-d4)oxy)piperidin-1-yl)-6-methyl-[1,2,4]triazolo[4,3-a]pyrimidin-3(2H)-one]
70% | 0.884 µM | 82% | 0.002 µM | – | [2H]C1([2H])Oc2ccc(OC3CCN(c4nc5nn(CC)c(=O)n5cc4C)CC3)cc2OC1([2H])[2H] [Compound A2, 7-(4-((2,3-dihydrobenzo[b][1,4]dioxin-6-yl-2,2,3,3-d4)oxy)piperidin-1-yl)-2-ethyl-6-methyl-[1,2,4]triazolo[4,3-a]pyrimidin-3(2H)-one]
45% | 0.839 µM | 79% | 0.005 µM | – | [2H]C1([2H])Oc2ccc(OC3CCN(c4nc5n[nH]c(=O)n5c(C)c4C)CC3)cc2OC1([2H])[2H] [Compound A9, 7-(4-((2,3-dihydrobenzo[b][1,4]dioxin-6-yl-2,2,3,3-d4)oxy)piperidin-1-yl)-5,6-dimethyl-[1,2,4]triazolo[4,3-a]pyrimidin-3(2H)-one]
– | – | 103% | 0.032 µM | Inactive | [2H]C1([2H])Oc2ccc(OC3CCN(c4nc5nn(C)c(=O)n5c(C5CC5)c4C)CC3)cc2OC1([2H])[2H] [Compound A12, 5-cyclopropyl-7-(4-((2,3-dihydrobenzo[b][1,4]dioxin-6-yl-2,2,3,3-d4)oxy)piperidin-1-yl)-2,6-dimethyl-[1,2,4]triazolo[4,3-a]pyrimidin-3(2H)-one]
– | – | 103% | 0.028 µM | Inactive | [2H]C([2H])([2H])n1nc2nc(N3CCC(Oc4ccc5c(c4)OC([2H])([2H])C([2H])([2H])O5)CC3)c(C)c(C3CC3)n2c1=O [Compound A13, 5-cyclopropyl-7-(4-((2,3-dihydrobenzo[b][1,4]dioxin-6-yl-2,2,3,3-d4)oxy)piperidin-1-yl)-6-methyl-2-(methyl-d3)-[1,2,4]triazolo[4,3-a]pyrimidin-3(2H)-one]
